Assays:
[1] = Electrochemical activity: polarographic reduction on mercury dripping electrode; type: physicochemical; conditions: for number of electrons participating in the reduction reaction: calculated with Geirovsky-Ilkovich equation; for i: 2.0% sodium chloride background, 9·10^−4 M; for i / −E1/2: 37° C., forward trace, average for the group of compounds; for −E1/2: vs SCE; for half-wave potential more positive at reverse stroke compared to forward stroke: polarograms of reverse stroke
Description: The study was carried out on a general-purpose polarograph PU-1 with a two-coordinate recorder of the “LKD” type using a three-electrode thermostatically controlled polarographic cell and mercury dripping electrode (MDE) with forced separation of the drop and a dropping period of 0.5 second. A platinum wire was used as an auxiliary electrode and a saturated calomel electrode (SCE) was used as a control electrode.
2.0% solutions of sodium chloride having pH 7.0, 7.2, 7.4, 7.6 were used as a background; the pH values of the background solution were corrected by a solution of sodium hydroxide. The polarographic cell was filled with 5.0 ml of the background solution and for 5 minutes was purged with nitrogen for removing the dissolved oxygen. Then 0.5 ml of solution of the studied substance was added to the background solution, and the polarogram was recorded as a polarographic wave. The concentration of the compounds in the polarographic cell was 9·10^−4 M.
The pH was measured on the pH-meter with an accuracy of +0.05 pH units. The polarographic measurements were carried out at a temperature of 37° C. The recording of polarograms of the investigated materials was effected under conditions of DC current at a scanning rate of the potential 10.0 mV/s with a active scanning stroke from a potential 0 to −0.5 V and sweep retrace from a −0.5 V to 0. The electric-current sensitivity was 5.0 mkA. The scale by the coordinate of the potentials was 50.0 mV/cm. The values of potentials of the half-wave E1/2 of the investigated materials are given with respect to the SCE potential.
The polarogram parameters such as a limiting current ilim and E1/2 were determined by the graphic method. The number of electrons participating in the reaction was calculated on the basis of the analysis of the polarographic wave using the Geirovsky-Ilkovich equation.
The calculation of the number of electrons participating in the reduction reaction was effected using the Geirovsky-Ilkovich equation: […]

[2] = Chronic toxicity of suppositories: indexes of peripheral blood; type: in vivo, rats; design: Thrombocytes: unit not given here; conditions: male rats, suppositories rectally; for Basophiles / Juveniles: 1 month/2 months (one value given), control 0

## COP(=O)(OC)C(C)(C)CC(C)=O [Dimesphosphon, dimethyl ester of 1,1-dimethyl-3-oxybuthyl of phosphonic acid, reference compound]
[1]
  number of electrons participating in the reduction reaction: 1.6
  half-wave potential more positive at reverse stroke compared to forward stroke: 50.0 mV
[1]; conclusion from calculated number
  electrons consumed during the reduction: 2
[1]; pH 7.0
  i: 0.10 ± 0.03 mkA
  −E1/2: 0.175 ± 0.01 V
[1]; pH 7.2
  i: 0.12 ± 0.03 mkA
  −E1/2: 0.17 ± 0.02 V
[1]; pH 7.4
  i: 0.11 ± 0.02 mkA
  −E1/2: 0.18 ± 0.01 V
[1]; pH 7.6
  i: 0.11 ± 0.02 mkA
  −E1/2: 0.18 ± 0.01 V

## O=c1[nH]n([C@@H]2O[C@H](CO)[C@@H](O)[C@H]2O)c(=O)c2ncnc(O)c12.[Na] [Compound 33, sodium salt of 4-hydroxy-7-(β-D-ribofuranosile)pyrimido[4,5-d]-6H-pyridazine-5,8-dione]
[1]
  number of electrons participating in the reduction reaction: 3.5
  half-wave potential more positive at reverse stroke compared to forward stroke: 27.0 mV
[1]; pH 7.0
  i: 0.30 ± 0.05 mkA
  −E1/2: 0.08 ± 0.02 V
[1]; pH 7.2
  i: 0.26 ± 0.02 mkA
  −E1/2: 0.085 ± 0.015 V
[1]; pH 7.4
  i: 0.30 ± 0.03 mkA
  −E1/2: 0.085 ± 0.02 V
[1]; pH 7.6
  i: 0.30 ± 0.02 mkA
  −E1/2: 0.09 ± 0.02 V

## O=c1[nH][nH]c(=O)c2nccnc12.[Na] [Compound 26, sodium salt of pyrazine[2,3-d]-6H-pyridazine-5,8-dione]
[1]
  half-wave potential more positive at reverse stroke compared to forward stroke: 27.0 mV

## potassium salt of 3-bromine-pyrazine[2,3-Cl]-6H-pyridazine-5,8-dione [Compound 27]
[1]
  number of electrons participating in the reduction reaction: 3.72
  half-wave potential more positive at reverse stroke compared to forward stroke: 20.0 mV
[1]; pH 7.0
  i: 0.32 ± 0.03 mkA
  −E1/2: 0.16 ± 0.02 V
[1]; pH 7.2
  i: 0.33 ± 0.04 mkA
  −E1/2: 0.19 ± 0.02 V
[1]; pH 7.4
  i: 0.34 ± 0.03 mkA
  −E1/2: 0.175 ± 0.01 V
[1]; pH 7.6
  i: 0.34 ± 0.02 mkA
  −E1/2: 0.16 ± 0.015 V

## O=c1[nH]n([C@@H]2O[C@H](CO)[C@@H](O)[C@H]2O)c(=O)c2ncccc12.[Na] [Compound 1, sodium salt of 7-(β-O-ribofuranosile)pyrido[2,3-1]-6H-pyridazine-5,8-dione sodium salt]
[1]
  number of electrons participating in the reduction reaction: 3.72
  half-wave potential more positive at reverse stroke compared to forward stroke: 25.0 mV
[1]; pH 7.0
  i: 0.26 ± 0.04 mkA
  −E1/2: 0.11 ± 0.02 V
[1]; pH 7.2
  i: 0.31 ± 0.02 mkA
  −E1/2: 0.11 ± 0.03 V
[1]; pH 7.4
  i: 0.27 ± 0.03 mkA
  −E1/2: 0.105 ± 0.01 V
[1]; pH 7.6
  i: 0.30 ± 0.01 mkA
  −E1/2: 0.105 ± 0.02 V

## O=C([O-])c1ncnc2c(=O)n([C@@H]3O[C@H](CO)[C@@H](O)[C@H]3O)[nH]c(=O)c12.[Na+] [Compound 34, sodium salt of 4-carboxy-7-(β-D-ribofuranosile)pyrimido[4,5-D]-6H-pyridazine-5,8-dione]
[2]; 50 mg/kg
  Basophiles: 0%
  Juveniles: 0%
[2]; 50 mg/kg, 1 month, control 0.8 ± 0.4
  Stab neutrophil: 1.0 ± 0.4%
[2]; 50 mg/kg, 1 month, control 2.2 ± 0.4
  REE: 1.8 ± 0.5 mm/h
[2]; 50 mg/kg, 1 month, control 2.8%0.3
  Reticulocytes: 2.7 ± 0.1%
[2]; 50 mg/kg, 1 month, control 4.0 + 0.3
  Eosinophiles: 3.5 ± 1.0%
[2]; 50 mg/kg, 1 month, control 5.6 ± 0.1
  Erythrocytes: 5.6 ± 0.1 mln/mm^3
[2]; 50 mg/kg, 1 month, control 10.5 ± 0.2
  Hemoglobin: 10.6 ± 0.1 mmol/L
[2]; 50 mg/kg, 1 month, control 17.4 ± 1.3
  Leukocyte: 15.9 ± 1.3 thousand/mm^3
[2]; 50 mg/kg, 1 month, control 45.9 ± 1.7
  Haematocrite: 46.9 ± 1.1%
[2]; 50 mg/kg, 1 month, control 81.4 ± 1.7
  Average volume of erythrocytes: 81.6 ± 1.9 Mkm^3
[2]; 50 mg/kg, 1 month, control 152 ± 10.2
  Coagulation, time: 148 ± 16 s
[2]; 50 mg/kg, 1 month, control 707 ± 23
  Thrombocytes: 670 ± 23
[2]; 50 mg/kg, 2 months, control 1.4 ± 0.2
  REE: 1.7 ± 0.3 mm/h
[2]; 50 mg/kg, 2 months, control 2.4 ± 0.4
  Stab neutrophil: 1.8 ± 0.5%
[2]; 50 mg/kg, 2 months, control 2.9 ± 0.2
  Reticulocytes: 2.9 ± 0.2%
[2]; 50 mg/kg, 2 months, control 4.4 + 1.2
  Eosinophiles: 4.1 ± 0.4%
[2]; 50 mg/kg, 2 months, control 6.1 ± 0.1
  Erythrocytes: 6.1 ± 0.2 mln/mm^3
[2]; 50 mg/kg, 2 months, control 11.4 ± 0.2
  Hemoglobin: 11.1 ± 0.2 mmol/L
[2]; 50 mg/kg, 2 months, control 19.1 ± 1.9
  Leukocyte: 17.8 ± 1.4 thousand/mm^3
[2]; 50 mg/kg, 2 months, control 45.9 ± 1.8
  Haematocrite: 47.5 ± 1.2%
[2]; 50 mg/kg, 2 months, control 74.6 + 1.9
  Average volume of erythrocytes: 76.7 ± 1.9 Mkm^3
[2]; 50 mg/kg, 2 months, control 316 ± 8
  Coagulation, time: 321 ± 10 s
[2]; 50 mg/kg, 2 months, control 593 ± 14
  Thrombocytes: 610 ± 15
[2]; 500 mg/kg
  Basophiles: 0%
  Juveniles: 0%
[2]; 500 mg/kg, 1 month, control 0.8 ± 0.4
  Stab neutrophil: 0.9 ± 0.2%
[2]; 500 mg/kg, 1 month, control 2.2 ± 0.4
  REE: 2.0 ± 0.4 mm/h
[2]; 500 mg/kg, 1 month, control 2.8%0.3
  Reticulocytes: 3.2 ± 0.2%
[2]; 500 mg/kg, 1 month, control 4.0 + 0.3
  Eosinophiles: 3.0 ± 0.9%
[2]; 500 mg/kg, 1 month, control 5.6 ± 0.1
  Erythrocytes: 5.6 ± 0.2 mln/mm^3
[2]; 500 mg/kg, 1 month, control 10.5 ± 0.2
  Hemoglobin: 10.6 ± 0.3 mmol/L
[2]; 500 mg/kg, 1 month, control 17.4 ± 1.3
  Leukocyte: 16.9 ± 1.0 thousand/mm^3
[2]; 500 mg/kg, 1 month, control 45.9 ± 1.7
  Haematocrite: 48.1 ± 1.5%
[2]; 500 mg/kg, 1 month, control 81.4 ± 1.7
  Average volume of erythrocytes: 84.1 ± 1.3 Mkm^3
[2]; 500 mg/kg, 1 month, control 707 ± 23
  Thrombocytes: 682 ± 24
[2]; 500 mg/kg, 2 months, control 1.4 ± 0.2
  REE: 1.8 ± 0.2 mm/h
[2]; 500 mg/kg, 2 months, control 2.4 ± 0.4
  Stab neutrophil: 1.4 ± 0.3%
[2]; 500 mg/kg, 2 months, control 2.9 ± 0.2
  Reticulocytes: 3.5 ± 0.3%
[2]; 500 mg/kg, 2 months, control 4.4 + 1.2
  Eosinophiles: 3.9 ± 1.4%
[2]; 500 mg/kg, 2 months, control 6.1 ± 0.1
  Erythrocytes: 6.6 ± 0.1 mln/mm^3
[2]; 500 mg/kg, 2 months, control 11.4 ± 0.2
  Hemoglobin: 12.4 ± 0.4 mmol/L
[2]; 500 mg/kg, 2 months, control 19.1 ± 1.9
  Leukocyte: 22.1 ± 1.1 thousand/mm^3
[2]; 500 mg/kg, 2 months, control 45.9 ± 1.8
  Haematocrite: 53.1 ± 1.6%
[2]; 500 mg/kg, 2 months, control 74.6 + 1.9
  Average volume of erythrocytes: 83.8 ± 1.5 Mkm^3
[2]; 500 mg/kg, 2 months, control 316 ± 8
  Coagulation, time: 312 ± 9 s
[2]; 500 mg/kg, 2 months, control 593 ± 14
  Thrombocytes: 631 ± 26

## disodium salt of 3-κapõoκcℏ-7-(β-D-ribofuranosile)pyrido[2,3-d]-6H-pyridazine-5,8-dione [Compound 5]
[1]
  number of electrons participating in the reduction reaction: 3.72
  half-wave potential more positive at reverse stroke compared to forward stroke: 25.0 mV
[1]; pH 7.0
  i: 0.26 ± 0.04 mkA
  −E1/2: 0.11 ± 0.02 V
[1]; pH 7.2
  i: 0.31 ± 0.02 mkA
  −E1/2: 0.11 ± 0.03 V
[1]; pH 7.4
  i: 0.27 ± 0.03 mkA
  −E1/2: 0.105 ± 0.01 V
[1]; pH 7.6
  i: 0.30 ± 0.01 mkA
  −E1/2: 0.105 ± 0.02 V

Source: patent US8592421B2, “Cyclic bioisosters of purine system derivatives and a pharmaceutical composition based thereon” (priority 2003, dated 2013)
